Legend:
IP-10 = assay: Cytokine expression after nanoparticle compositions: IP-10; type: in vivo; conditions: 6 h; nanoparticle composition including the compound
IL-6 = assay: Cytokine expression after nanoparticle compositions: IL-6; type: in vivo; conditions: 6 h; nanoparticle composition including the compound
ffluc = assay: Average total flux (ffluc) from nanoparticle compositions; type: in vivo; conditions: 6 h
hEPO = hEPO expression from nanoparticle compositions; type: in vivo; conditions: for hEPO expression: nanoparticle composition including the compound; for Average hEPO concentration: Table 9
adult rat = assay: Dose range finding (DRF) study in adult rat; type: in vivo; conditions: one month, one dose per week (5 total doses)
Experimental: (§1) Dose range finding (DRF) studies using surrogate Compound 18 are in progress to further examine the Compound 18 programs. One month of a DRF study, consisting of one dose per week (5 total doses) in adult rat was performed in order to measure hematology, clinical chemistry, and full pathology. […] Additionally, one month of GLP dose studies, consisting of five doses (one per week) via IV infusion will be administered to rats in order to examine safety pharmacology measures, including central nervous system (rats) and cardiovascular system (monkeys), such as heart rate, blood pressure, and EKG readings. Furthermore, gene toxicity studies were be undertaken, in vitro, using a 4 strain Ames test, and in vitro micronucleous hPBMCs. […] An in vivo mouse micronucleus assay will also be performed to further investigate the Compound 18/5-methoxy uridine (mo5U) modification chemistry.

4 strain Ames test = assay: 4 strain Ames test; type: cell-based; conditions: in vitro
Experimental: as §1

triglycerides = conditions: existing hyperlipidemia treatment, patients; cited from earlier work
[1] = tested on: triglycerides in HTG patients; conditions: existing HTG treatments; cited from earlier work

Cytokine expression IP-10 (IP-10) | Cytokine expression IL-6 (IL-6) | clinical chemistry (adult rat) | Structure (SMILES) | Average total flux (ffluc) | hEPO expression (hEPO; 3 h) | Average hEPO concentration (hEPO; 6 h) | hEPO expression (hEPO; 24 h) | adverse events (adult rat) | mutagenic potential (Ames data) (4 strain Ames test) | hEPO expression (hEPO; 6 h) | reduction in triglycerides (triglycerides) | reduction in triglycerides [1]
116.66 pg/mL | 10.15 pg/mL | – | CCCCC/C=C\C/C=C\CCCCCCCCN(CCO)CCCCCCCC(=O)OC(CCCCCCCC)CCCCCCCC [Compound 6] | 7.60 × 10^9 | – | – | – | – | – | – | – | –
299.93 pg/mL | 10.16 pg/mL | normal | CCCCCCCCCOC(=O)CCCCCCCN(CCO)CCCCCCCC(=O)OC(CCCCCCCC)CCCCCCCC [Compound 18, Heptadecan-9-yl 8-((2-hydroxyethyl)(8-(nonyloxy)-8-oxooctyl)amino) octanoate] | – | 3e+06 pg/mL | 3.38e+06 pg/mL | 1.8e+06 pg/mL | No adverse events were reported | does not have mutagenic potential | – | – | –
117.94 pg/mL | 19.85 pg/mL | – | CCCCC/C=C\C/C=C\CCCCCCCCC(CCCCCCCC/C=C\C/C=C\CCCCC)OC(=O)CCCN(C)C [MC3] | 6.59 × 10^9 | 1.57e+06 pg/mL | 1.83e+06 pg/mL | 810000 pg/mL | – | – | 1.83e+06 pg/mL | – | –
– | – | – | O=C(O)c1cccnc1 [Nicotinic acid] | – | – | – | – | – | – | – | 15-25% | 15-25%
